# Measured values taken from patent US20250032458A1, “TREATMENT OF CANCER WITH AN FGFR KINASE INHIBITOR” (Kinnate Biopharma Inc., priority 2021, published 2025).
# Where two headings read alike, the source gives them in different places.
# Experiments:
# [1] = test system: SNU-16 cells; test: Cell proliferation, 5-day CellTiter-Glo; format: cell-based; conditions: Homo sapiens, 120 h; SNU-16, 5 days; read-out: 5-Day CTG EC50
# [2] = test system: KATO-III cells; test: Cell proliferation, 5-day CellTiter-Glo; format: cell-based; conditions: Homo sapiens, 120 h, 5 days, read-out: 5-Day CTG EC50
# [3] = test system: RT-112 cells; test: Cell proliferation, 5-day CellTiter-Glo; format: cell-based; conditions: Homo sapiens, 120 h; RT-112, 5 days; read-out: 5-Day CTG EC50
# [4] = test system: RT-4 cells; test: Cell proliferation, 5-day CellTiter-Glo; format: cell-based; conditions: Homo sapiens, 120 h; RT-4, 5 days; read-out: 5-Day CTG EC50
# [5] = test system: SW-780 cells; test: Cell proliferation, 5-day CellTiter-Glo; format: cell-based; conditions: Homo sapiens, SW780, 120 h; SW-780, 5 days; read-out: 5-Day CTG EC50
# [6] = test system: human RT-112 urinary bladder transitional cell carcinoma xenograft (FGFR3-TACC3 fusion); conditions: for ΔT/ΔC / Final TV: 21 days; for Final TV: mean ± SEM
# Source text: (§1) Groups and treatments were started when the mean tumor volume reached approximately 200-250 mm^3. Mice were assigned to respective groups based on their starting tumor volume and body weight such that the average values for both parameters were balanced for each treatment group.
# [7] = test system: human SNU-16 gastric cancer xenograft (FGFR2 gene amplification); conditions: for ΔT/ΔC / Final TV: 21 days; for Final TV: mean ± SEM
# Source text: as §1
# [8] = Exposure in mice bearing RT-112 xenografts; conditions: mouse, in vivo, PO QD 2-15 mg/kg, 24-hour period following the last dose
# Description: (§2) Three animals in the 15 mg/kg cohort lost >10% of their body weight during the course of treatment but recovered by end of study.
# [9] = Exposure in mice bearing SNU-16 xenografts; conditions: mouse, in vivo, PO QD 2-15 mg/kg, 24-hour period following the last dose
# [10] = Tolerability / body weight in RT-112 xenograft mice; format: in vivo; conditions: RT-112 model
# Description: as §2
# [11] = Tolerability / body weight in SNU-16 xenograft mice; format: in vivo; conditions: SNU-16 model, all tested doses and schedules; lack of significant body weight changes
# Source text: […]. Treatment was initiated when tumor volumes were approximately 200-250 mm^3 (actual mean TV for all groups was 262 mm^3).
# [12] = molecular target: T1, TNK1 (Homo sapiens, UniProt Q13470); test: Kinome selectivity screen by mobility shift assay (321 kinases); conditions: read-out: % Inhibition 1 μM
# T1 sequence (Q13470 1-666): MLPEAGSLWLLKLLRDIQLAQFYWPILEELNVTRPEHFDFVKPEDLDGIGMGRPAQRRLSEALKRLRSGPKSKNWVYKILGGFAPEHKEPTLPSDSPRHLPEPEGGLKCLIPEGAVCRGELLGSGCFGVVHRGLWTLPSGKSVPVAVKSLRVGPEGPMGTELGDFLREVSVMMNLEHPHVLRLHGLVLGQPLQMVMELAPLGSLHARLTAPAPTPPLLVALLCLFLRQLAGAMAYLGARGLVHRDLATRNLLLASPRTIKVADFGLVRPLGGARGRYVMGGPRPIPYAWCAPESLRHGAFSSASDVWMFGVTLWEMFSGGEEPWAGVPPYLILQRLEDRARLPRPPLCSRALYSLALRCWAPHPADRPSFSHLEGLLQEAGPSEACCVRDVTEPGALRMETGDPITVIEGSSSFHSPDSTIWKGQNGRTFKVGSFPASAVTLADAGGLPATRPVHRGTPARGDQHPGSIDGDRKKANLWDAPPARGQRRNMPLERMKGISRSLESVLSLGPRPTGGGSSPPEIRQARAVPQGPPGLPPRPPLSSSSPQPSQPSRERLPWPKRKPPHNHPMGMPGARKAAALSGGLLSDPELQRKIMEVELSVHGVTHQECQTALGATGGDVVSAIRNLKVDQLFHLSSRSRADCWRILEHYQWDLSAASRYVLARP
# [13] = molecular target: LOK (AKA STK10) (Homo sapiens, UniProt O94804); test: as above; conditions: read-out: % Inhibition 1 μM
# Chain of LOK (AKA STK10) (O94804 whole entry): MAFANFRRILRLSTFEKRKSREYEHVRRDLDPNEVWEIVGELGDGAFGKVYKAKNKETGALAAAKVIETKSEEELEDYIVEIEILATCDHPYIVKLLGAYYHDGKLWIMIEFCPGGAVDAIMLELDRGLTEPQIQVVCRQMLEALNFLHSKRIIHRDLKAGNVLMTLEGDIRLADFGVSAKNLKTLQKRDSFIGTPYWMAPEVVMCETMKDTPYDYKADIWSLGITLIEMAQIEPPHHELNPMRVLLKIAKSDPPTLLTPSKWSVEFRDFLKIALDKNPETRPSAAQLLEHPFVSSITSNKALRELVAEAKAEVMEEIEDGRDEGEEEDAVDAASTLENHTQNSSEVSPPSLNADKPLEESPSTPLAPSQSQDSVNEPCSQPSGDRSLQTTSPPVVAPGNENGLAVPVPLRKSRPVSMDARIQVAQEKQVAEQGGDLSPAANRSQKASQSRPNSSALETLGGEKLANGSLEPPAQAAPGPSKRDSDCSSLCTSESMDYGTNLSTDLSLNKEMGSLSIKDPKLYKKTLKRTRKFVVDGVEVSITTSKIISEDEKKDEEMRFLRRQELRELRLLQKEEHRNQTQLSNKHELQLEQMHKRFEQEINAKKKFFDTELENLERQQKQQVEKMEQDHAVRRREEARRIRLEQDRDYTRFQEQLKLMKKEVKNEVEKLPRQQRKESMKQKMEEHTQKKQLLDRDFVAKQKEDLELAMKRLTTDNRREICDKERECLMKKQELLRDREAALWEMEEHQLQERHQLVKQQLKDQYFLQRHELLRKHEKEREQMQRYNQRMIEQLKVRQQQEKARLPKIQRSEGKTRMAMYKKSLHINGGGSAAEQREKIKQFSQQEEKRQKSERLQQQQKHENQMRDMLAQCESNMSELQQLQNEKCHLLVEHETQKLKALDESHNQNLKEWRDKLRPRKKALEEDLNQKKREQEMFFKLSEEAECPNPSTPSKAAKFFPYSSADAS
# [14] = test system: panel of 321 kinases; test: Kinome selectivity screen by mobility shift assay (whole panel); conditions: 1 μM
# [15] = test system: endogenous FGFR in five human tumor cell lines; conditions: read-out: EC50 values, inhibition of endogenous FGFR
structure (smiles),measurement,setting,value
"C=CC(=O)N1C[C@@H](n2nc(C#Cc3c(F)cc4c(ncn4C4CC4)c3F)c(C(N)=O)c2NC)C[C@@H]1COC [Compound 1, 1-((3S,5R)-1-acryloyl-5-(methoxymethyl)pyrrolidin-3-yl)-3-((1-cyclopropyl-4,6-difluoro-1H-benzo[d]imidazol-5-yl)ethynyl)-5-(methylamino)-1H-pyrazole-4-carboxamide]",EC50,[1],3.89 nM
same,EC50,[2],5.19 nM
same,EC50,[3],4.14 nM
same,EC50,[4],5.96 nM
same,EC50,[5],4.14 nM
same,ΔT/ΔC,"[6]; RT-112, 2 mg/kg QD PO",20%
same,Final TV,"[6]; RT-112, 2 mg/kg QD PO",446 ± 49 mm^3
same,animals exhibiting tumor regression,"[6]; RT-112, 5 mg/kg QD",4 of 9
same,ΔT/ΔC,"[6]; RT-112, 5 mg/kg QD PO",9%
same,Final TV,"[6]; RT-112, 5 mg/kg QD PO",343 ± 57 mm^3
same,animals exhibiting tumor regression,"[6]; RT-112, 15 mg/kg QD",4 of 9
same,ΔT/ΔC,"[6]; RT-112, 15 mg/kg QD PO",1%
same,Final TV,"[6]; RT-112, 15 mg/kg QD PO",274 ± 48 mm^3
same,ΔT/ΔC,"[7]; SNU-16, 2 mg/kg QD PO",31%
same,Final TV,"[7]; SNU-16, 2 mg/kg QD PO",497 ± 22 mm^3
same,ΔT/ΔC,"[7]; SNU-16, 5 mg/kg QD PO",19%
same,Final TV,"[7]; SNU-16, 5 mg/kg QD PO",410 ± 20 mm^3
same,ΔT/ΔC,"[7]; SNU-16, 15 mg/kg QD PO",7%
same,Final TV,"[7]; SNU-16, 15 mg/kg QD PO",313 ± 13 mm^3
same,animals with tumor regression,"[7]; SNU-16, 15 mg/kg QD cohort",one
same,AUC(0-t),[8],1320 to 9760 ng·h/mL
same,AUC(0-t),[9],1090 to 9760 ng·h/mL
same,average weight loss,[10]; 15 mg/kg QD,5.4%
same,animals that lost >10% of their body weight during treatment (recovered by end of study),[10]; 15 mg/kg cohort (9 animals),Three
same,tolerability,"[10]; all of the tested doses (2, 5, 15 mg/kg QD)",well tolerated
same,tolerability,[11],well tolerated
same,inhibition at 1 µM,[12],89.5%
same,inhibition at 1 µM,[13],64.6%
same,number of non-FGFR kinases with >40% inhibition,[14],2
same,EC50,[15],1 to 6 nM
